15 compounds from patent US20240415819A1, “MACROCYCLIC COMPOUNDS AS PROTEASOME SUBUNIT BETA TYPE-5 INHIBITORS” (Lead Discovery Center GmbH, priority 2021, published 2024) can be followed below.

Test [1] concerns the target T1, β5 subunit of the human immunoproteasome (IPS) (Homo sapiens, UniProt P28062).
T1 construct: purchased Boston Biochem E-370
Nature of the test: β5 inhibition assay, human immunoproteasome (Suc-LLVY-AMC). Conditions: IC50 class, Suc-LLVY-AMC substrate. The test is classed as biochemical. In a few lines: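 Human immunoproteasome (1 nM final) was preincubated 10 min at RT with compound in 100 mM HEPES pH 7.5, 50 mM NaCl, 0.02% SDS, 1 mM DTT. Suc-LLVY-AMC (22.6 μM final) was then added for 4 h at RT in the dark. After stopping with 1 μM bortezomib, AMC fluorescence was read (ex 355/em 460 nm).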

For test [2], the target named is T2, β5 subunit of the human constitutive proteasome (CPS) (Homo sapiens, UniProt P28074).
T2 construct: purchased Boston Biochem E-360
The experiment in a line: β5 inhibition assay, human constitutive proteasome (Suc-LLVY-AMC). The test is classed as biochemical. To be noted: IC50 class, Suc-LLVY-AMC substrate. As for the experimental part: The enzymatic activity of the β5 subunit of the human constitutive proteasome (CPS) is analyzed. In another assay, which differs from the assay of the human constitutive proteasome only in using the human immunoproteasome (IPS) the enzymatic activity of the β5 subunit of the human immunoproteasome (IPS) is analyzed. […] Inhibition is indicated as IC50 [nM] (“-”=not measured).

The test system of test [3] is hPMBC. Nature of the test: Chymotrypsin-like ProteasomeGlo assay in hPBMC. In kind it is cell-based. To be noted: Homo sapiens; read-out: Pglo hPBMC. In a few lines: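 B cells isolated from human PBMC (buffy coats, density gradient, magnetic isolation). Cells treated with compound for 105 min at 37 °C, with staurosporine and DMSO included. Chymotrypsin-like proteasome activity read by luminescence with Suc-LLVY-Glo substrate to derive IC50.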

On to `CC(=O)N[C@H]1CCC(=O)N2CCOC(CCOc3ccc(C)c(c3)CNC(=O)[C@H](CCc3ccccc3)NC1=O)C2` (stereo partly drawn) [Compound 143, N-((9S,12S)-5^4-methyl-8,11,15-trioxo-9-phenethyl-4-oxa-7,10-diaza-1(2,4)-morpholina-5(1,3)-benzenacyclopentadecaphane-12-yl)acetamide], for which the IC50 in test [1], in test [2] and in test [3] was < 100 nM each time.

With `CC(=O)N[C@H]1CCC(=O)N2CCCC(C2)Oc2ccc(C)c(c2)CNC(=O)[C@H](CCc2ccccc2)NC1=O` (stereo partly drawn) [Compound 148, N-((7S,10S)-3^4-methyl-6,9,13-trioxo-7-phenethyl-2-oxa-5,8-diaza-1(3,1)-piperidina-3(1,3)-benzenacyclotridecaphane-10-yl)acetamide], the figures for the IC50 in test [1], in test [2] and in test [3] were < 100 nM, 1000 to 5000 nM and 500 to 1000 nM, respectively.

As to `Cc1ccc2cc1CNC(=O)[C@H](CCc1ccccc1)NC(=O)[C@@H](NC(=O)C1CCNCC1(F)F)CC(=O)N1CCCC(CCO2)C1` (stereo partly drawn) [Compound 152, 3,3-difluoro-N-((9S,12S)-5^4-methyl-8,11,14-trioxo-9-phenethyl-4-oxa-7,10-diaza-1(3,1)-piperidina-5(1,3)-benzenacyclotetradecaphane-12-yl)piperidine-4-carboxamide], the IC50 in test [1], in test [2] and in test [3] was < 100 nM each time.

In the case of `Cc1ccc2cc1CNC(=O)[C@H](CCc1ccccc1)NC(=O)[C@@H](NC(=O)C1CCC(C(F)(F)F)N1)CC(=O)N1CCCC(CCO2)C1` (stereo partly drawn) [Compound 157, N-((9S,12S)-5^4-methyl-8,11,14-trioxo-9-phenethyl-4-oxa-7,10-diaza-1(3,1)-piperidina-5(1,3)-benzenacyclotetradecaphane-12-yl)-5-(trifluoromethyl)pyrrolidine-2-carboxamide], the IC50 in test [1], in test [2] and in test [3] was < 100 nM in each case.

`Cc1ccc2cc1CNC(=O)[C@H](CCc1ccccc1)NC(=O)[C@@H](NC(=O)C1(N)COC1)CC(=O)N1CCCC(CCO2)C1` (stereo partly drawn) [Compound 158, 3-amino-N-((9S,12S)-5^4-methyl-8,11,14-trioxo-9-phenethyl-4-oxa-7,10-diaza-1(3,1)-piperidina-5(1,3)-benzenacyclotetradecaphane-12-yl)oxetane-3-carboxamide]: the IC50 in test [1], in test [2] and in test [3] was < 100 nM in each case.

In the case of `Cc1ccc2cc1CNC(=O)[C@H](CCc1ccccc1)NC(=O)[C@@H](NC(=O)C1(N)CCOC1)CC(=O)N1CCCC(CCO2)C1` (stereo partly drawn) [Compound 159, 3-amino-N-((9S,12S)-5^4-methyl-8,11,14-trioxo-9-phenethyl-4-oxa-7,10-diaza-1(3,1)-piperidina-5(1,3)-benzenacyclotetradecaphane-12-yl)tetrahydrofuran-3-carboxamide], the IC50 in test [1], in test [2] and in test [3] was < 100 nM each time.

`Cc1ccc2cc1CNC(=O)[C@H](CCc1ccccc1)NC(=O)[C@@H](NC(=O)C1CCN1)CC(=O)N1CCCC(CCO2)C1` (stereo partly drawn) [Compound 160, (2R)-N-((9S,12S)-5^4-methyl-8,11,14-trioxo-9-phenethyl-4-oxa-7,10-diaza-1(3,1)-piperidina-5(1,3)-benzenacyclotetradecaphane-12-yl)azetidine-2-carboxamide]: the IC50 in test [1], in test [2] and in test [3] was < 100 nM each time.

Turning to `CC(=O)N[C@H]1CCC(=O)NCCCCOc2ccc(C)c(c2)CNC(=O)[C@H](CCc2ccccc2)NC1=O` [Compound 171, N-((11S,14S)-1^4-methyl-8,12,15-trioxo-14-phenethyl-2-oxa-7,13,16-triaza-1(1,3)-benzenacycloheptadecaphane-11-yl)acetamide], the IC50 in test [1] was < 100 nM; in test [2], 100 to 500 nM; in test [3], < 100 nM.

Consider `Cc1nc2cc(CCC(=O)N[C@H]3CC(=O)N4CCCC(CCOc5ccc(C)c(c5)CNC(=O)[C@H](CCc5ccccc5)NC3=O)C4)ccc2[nH]1` (stereo partly drawn) [Compound 174, 3-(2-methyl-1H-benzo[d]imidazol-6-yl)-N-((9S,12S)-5^4-methyl-8,11,14-trioxo-9-phenethyl-4-oxa-7,10-diaza-1(3,1)-piperidina-5(1,3)-benzenacyclotetradecaphane-12-yl)propanamide], for which the IC50 in test [1], in test [2] and in test [3] was < 100 nM in each case.

For the compound `Cc1ccc2cc1CNC(=O)[C@H](CCc1ccccc1)NC(=O)[C@@H](NC(=O)CCc1ccc(Br)cc1)CC(=O)N1CCCC(CCO2)C1` (stereo partly drawn) [Compound 175, 3-(4-bromophenyl)-N-((9S,12S)-5^4-methyl-8,11,14-trioxo-9-phenethyl-4-oxa-7,10-diaza-1(3,1)-piperidina-5(1,3)-benzenacyclotetradecaphane-12-yl)propanamide], the IC50 in test [1], in test [2] and in test [3] was < 100 nM in each case.

As to `Cc1ccc2cc1CNC(=O)[C@H](CCc1ccccc1)NC(=O)[C@@H](NC(=O)CCc1ccc(-c3ccccc3)cc1)CC(=O)N1CCCC(CCO2)C1` (stereo partly drawn) [Compound 176, 3-([1,1′-biphenyl]-4-yl)-N-((9S,12S)-5^4-methyl-8,11,14-trioxo-9-phenethyl-4-oxa-7,10-diaza-1(3,1)-piperidina-5(1,3)-benzenacyclotetradecaphane-12-yl)propanamide], the IC50 in test [1], in test [2] and in test [3] was < 100 nM throughout.

On to `Cc1ccc2cc1CNC(=O)[C@H](CCc1ccccc1)NC(=O)[C@@H](NC(=O)CCc1ccccc1-c1ccccc1)CC(=O)N1CCCC(CCO2)C1` (stereo partly drawn) [Compound 177], for which the IC50 in test [1], in test [2] and in test [3] was < 100 nM in each case.

With `Cc1ccc2cc1CNC(=O)[C@H](CCc1ccccc1)NC(=O)[C@@H](NC(=O)[C@@H](N)Cc1ccccc1)CC(=O)N1CCCC(CCO2)C1` (stereo partly drawn) [Compound 179, (2R)-2-amino-N-((9S,12S)-5^4-methyl-8,11,14-trioxo-9-phenethyl-4-oxa-7,10-diaza-1(3,1)-piperidina-5(1,3)-benzenacyclotetradecaphane-12-yl)-3-phenylpropanamide-], the IC50 in test [1], in test [2] and in test [3] was < 100 nM in each case.

For `C=CS(=O)(=O)N[C@H]1CC(=O)N2CCCC(CCOc3ccc(C)c(c3)CNC(=O)[C@H](CCc3ccccc3)NC1=O)C2` (stereo partly drawn) [Compound 180, N-((9S,12S)-5^4-methyl-8,11,14-trioxo-9-phenethyl-4-oxa-7,10-diaza-1(3,1)-piperidina-5(1,3)-benzenacyclotetradecaphane-12-yl)ethenesulfonamide], the IC50 in test [1], in test [2] and in test [3] was < 100 nM in each case.

Take `C=CC(=O)N[C@H]1CC(=O)N2CCCC(CCOc3ccc(C)c(c3)CNC(=O)[C@H](CCc3ccccc3)NC1=O)C2` (stereo partly drawn) [Compound 181, N-((9S,12S)-5^4-methyl-8,11,14-trioxo-9-phenethyl-4-oxa-7,10-diaza-1(3,1)-piperidina-5(1,3)-benzenacyclotetradecaphane-12-yl)acrylamide]: the IC50 in test [1], in test [2] and in test [3] was < 100 nM in each case.
